Experimental data taken from patent publication US9573913B2, “Cathepsin cysteine protease inhibitors” (Merck Sharp & Dohme Corp., priority 2013, dated 2017).

Columns and labels:
[1] = target: T1, human cathepsin F (Homo sapiens, UniProt Q9UBX1); assay: Cathepsin F assay (hCat F); type: biochemical; conditions: Z-Phe-Arg-AMC substrate, pH 5.5, 15 min preincubation; read-out: hCat F (IP (nM))
T1 sequence (Q9UBX1 271-484): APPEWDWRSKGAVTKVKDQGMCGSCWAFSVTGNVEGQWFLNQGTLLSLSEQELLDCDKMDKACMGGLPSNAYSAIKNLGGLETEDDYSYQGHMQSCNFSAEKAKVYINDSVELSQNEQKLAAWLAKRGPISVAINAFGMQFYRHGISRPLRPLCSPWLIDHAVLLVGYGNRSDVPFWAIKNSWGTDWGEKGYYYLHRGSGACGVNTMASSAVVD
Procedure, shortened: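 AMC release from Z-Phe-Arg-AMC, added at 8 μM, was monitored fluorometrically (360/460 nm) for 20 min after 10 nM enzyme and compound had been preincubated 15 min at room temperature. Buffer: MES 50 mM pH 5.5, EDTA and DTT 2.5 mM each, 10% DMSO. Compound DMSO dilutions spanned 500–0.025 μM (3-fold). Dose-response fitting gave % inhibition.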

[2] = target: human cathepsin K (UniProt P43236); assay: Cathepsin K Assay (hrbCat K); type: biochemical; conditions: Z-Leu-Arg-AMC substrate, pH 5.5, 15 min preincubation; read-out: hrbCat K (IP (nM))
Procedure, shortened: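 Human cathepsin K (0.4 nM) was preincubated 15 min at room temperature with compound in 50 mM MES pH 5.5, 2.5 mM EDTA, 2.5 mM DTT and 10% DMSO. Inhibition was fitted to a dose-response model.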

| SMILES | IC50 [1] [nM] | IC50 [2] [nM] |
| --- | --- | --- |
| CC(C)(C)c1nc([C@@H]2CCCC[C@H]2C(=O)NC2(C#N)CC2)c(-c2ccc(N3CCS(=O)(=O)CC3)cc2)s1 [Example 20, (1R,2R)-2-(2-(tert-butyl)-5-(4-(1,1-dioxidothiomorpho-lino)phenyl)thiazol-4-yl)-N-(1-cyanocyclopropyl) cyclohexanecarbox-amide] | 8630 | 2.7 |
| N#CC1(NC(=O)[C@@H]2CC(F)(F)CC[C@H]2c2nc(CC(F)(F)F)sc2-c2ccc(N3CCS(=O)(=O)CC3)cc2)CC1 [Example 21, (1R,2R)-N-(1-cyanocyclopropyl)-2-(5-(4-(1,1-dioxidothiomorpho-lino)phenyl)-2-(2,2,2-trifluoroethyl)thia-zol-4-yl)-5,5-difluorocyclohexane-carboxamide] | 314 | 1.6 |
| N#CC1(NC(=O)[C@@H]2CCCC[C@H]2c2nc(CC(F)(F)F)sc2-c2ccc(N3CCS(=O)(=O)CC3)cc2)CC1 [Example 22, (1R,2R)-N-(1-cyanocyclopropyl)-2-(5-(4-(1,1-dioxidothiomorpho-lino)phenyl)-2-(2,2,2-trifluoroethyl)thia-zol-4-yl)cyclohexane-carboxamide] | 8520 | 6.6 |
| N#CC1(NC(=O)[C@@H]2CC(F)(F)CC[C@H]2c2nc(CCC(F)(F)F)sc2-c2ccc(N3CCS(=O)(=O)CC3)cc2)CC1 [Example 23, (1R,2R)-N-(1-cyanocyclopropyl)-2-(5-(4-(1,1-dioxidothiomorpho-lino)phenyl)-2-(3,3,3-trifluoropropyl)thia-zol-4-yl)-5,5-difluorocyclohexane-carboxamide] | 223 | 1.1 |
| N#CC1(NC(=O)[C@@H]2CCCC[C@H]2c2nc(CCC(F)(F)F)sc2-c2ccc(N3CCS(=O)(=O)CC3)cc2)CC1 [Example 24, (1R,2R)-N-(1-cyanocyclopropyl)-2-(5-(4-(1,1-dioxidothiomorpho-lino)phenyl)-2-(3,3,3-trifluoropropyl)thia-zol-4-yl)cyclohexane-carboxamide] | 2230 | 5.6 |
| CC(C)(C)c1nc([C@@H]2CC[C@H](F)C[C@H]2C(=O)NC2(C#N)CC2)c(-c2ccc(N3CCS(=O)(=O)CC3)cc2)s1 [Example 25, (1R,2R,5S)-2-(2-(tert-butyl)-5-(4-(1,1-dioxidothiomorpho-lino)phenyl)thiazol-4-yl)-N-(1-cyanocyclopropyl)-5-fluorocyclohexane-carboxamide] | 9260 | 3.3 |
| N#CC1(NC(=O)[C@@H]2CC(F)(F)CC[C@H]2c2nc(-c3ccc(F)cc3)sc2-c2ccc(N3CCS(=O)(=O)CC3)cc2)CC1 [Example 26, (1R,2R)-N-(1-cyanocyclopropyl)-2-(5-(4-(1,1-dioxidothiomorpho-lino)phenyl)-2-(4-fluorophenyl)thiazol-4-yl)-5,5-difluorocyclohexane-carboxamide] | 35 | 0.3 |
| N#CC1(NC(=O)[C@@H]2CCCC[C@H]2c2nc(-c3ccc(F)cc3)sc2-c2ccc(N3CCS(=O)(=O)CC3)cc2)CC1 [Example 27, (1R,2R)-N-(1-cyanocyclopropyl)-2-(5-(4-(1,1-dioxidothiomorpho-lino)phenyl)-2-(4-fluorophenyl)thiazol-4-yl)cyclohexane-carboxamide] | 1000 | 0.6 |
| N#CC1(NC(=O)[C@@H]2CC(F)(F)CC[C@H]2c2nc(-c3ccc(F)cc3)sc2-c2ccc(C(=O)N3CCOCC3)cc2)CC1 [Example 28, (1R,2R)-N-(1-cyanocyclopropyl)-5,5-difluoro-2-(2-(4-fluorophenyl)-5-(4-(morpholine-4-carbonyl)phenyl)thi-azol-4-yl)cyclohexane-carboxamide] | 63 | 2.3 |
| CS(=O)(=O)N1CCN(C(=O)c2ccc(-c3sc(-c4ccc(F)cc4)nc3[C@@H]3CCC(F)(F)C[C@H]3C(=O)NC3(C#N)CC3)cc2)CC1 [Example 29, (1R,2R)-N-(1-cyanocyclopropyl)-5,5-difluoro-2-(2-(4-fluorophenyl)-5-(4-(4-(methylsulfonyl)piperazine-1-carbonyl)phenyl)thi-azol-4-yl)cyclohexane-carboxamide] | 57 | 1.9 |
| N#CC1(NC(=O)[C@@H]2CC(F)(F)CC[C@H]2c2nc(-c3ccc(F)cc3)sc2-c2ccc(C(=O)N3CCNC(=O)C3)cc2)CC1 [Example 30, (1R,2R)-N-(1-cyanocyclopropyl)-5,5-difluoro-2-(2-(4-fluorophenyl)-5-(4-(3-oxopiperazine-1-carbonyl)phenyl)thi-azol-4-yl)cyclohexane-carboxamide] | 51 | 2.2 |
| N#CC1(NC(=O)[C@@H]2CC(F)(F)CC[C@H]2c2nc(-c3ccc(F)cc3)sc2-c2ccc(C(=O)N3CCC(O)CC3)cc2)CC1 [Example 31, (1R,2R)-N-(1-cyanocyclopropyl)-5,5-difluoro-2-(2-(4-fluorophenyl)-5-(4-(4-hydroxypiperidine-1-carbonyl)phenyl)thi-azol-4-yl)cyclohexane-carboxamide] | 73 | 3.4 |
| N#CC1(NC(=O)[C@@H]2CCCC[C@H]2c2nc(-c3ccc(F)cc3)sc2-c2ccc(C(=O)N3CCOCC3)cc2)CC1 [Example 32, (1R,2R)-N-(1-cyanocyclopropyl)-2-(2-(4-fluorophenyl)-5-(4-(morpholine-4-carbonyl)phenyl)thi-azol-4-yl)cyclohexane-carboxamide] | 422 | 65.1 |
| CS(=O)(=O)N1CCN(C(=O)c2ccc(-c3sc(-c4ccc(F)cc4)nc3[C@@H]3CCCC[C@H]3C(=O)NC3(C#N)CC3)cc2)CC1 [Example 33, (1R,2R)-N-(1-cyanocyclopropyl)-2-(2-(4-fluorophenyl)-5-(4-(4-(methylsulfonyl)piperazine-1-carbonyl)phenyl)thi-azol-4-yl)cyclohexane-carboxamide] | 410 | 47 |
| N#CC1(NC(=O)[C@@H]2CCCC[C@H]2c2nc(-c3ccc(F)cc3)sc2-c2ccc(C(=O)N3CCC(O)CC3)cc2)CC1 [Example 34, (1R,2R)-N-(1-cyanocyclopropyl)-2-(2-(4-fluorophenyl)-5-(4-(4-hydroxypiperidine-1-carbonyl)phenyl)thi-azol-4-yl)cyclohexane-carboxamide] | 868 | 101 |
| N#CC1(NC(=O)[C@@H]2CCCC[C@H]2c2nc(-c3ccc(F)cc3)sc2-c2ccc(C(=O)N3CCNC(=O)C3)cc2)CC1 [Example 35, (1R,2R)-N-(1-cyanocyclopropyl)-2-(2-(4-fluorophenyl)-5-(4-(3-oxopiperazine-1-carbonyl)phenyl)thi-azol-4-yl)cyclohexane-carboxamide] | 667 | 64.5 |
| N#CC1(NC(=O)[C@@H]2CCCC[C@H]2c2nc(-c3cccnc3)sc2-c2ccc(N3CCS(=O)(=O)CC3)cc2)CC1 [Example 37, (1R,2R)-N-(1-cyanocyclopropyl)-2-(5-(4-(1,1-dioxidothiomorpho-lino)phenyl)-2-(pyridin-3-yl)thiazol-4-yl)cyclohexane-carboxamide] | 2620 | 0.5 |
| N#CC1(NC(=O)[C@@H]2CCCC[C@H]2c2nc(-c3ccc(C(F)(F)F)nc3)sc2-c2ccc(N3CCS(=O)(=O)CC3)cc2)CC1 [Example 38, (1R,2R)-N-(1-cyanocyclopropyl)-2-(5-(4-(1,1-dioxidothiomorpho-lino)phenyl)-2-(6-(trifluoromethyl)pyridin-3-yl)thiazol-4-yl)cyclohexane-carboxamide] | 2060 | 1.8 |
| N#CC1(NC(=O)[C@@H]2CCCC[C@H]2c2nc(-c3ccon3)sc2-c2ccc(N3CCS(=O)(=O)CC3)cc2)CC1 [Example 39, (1R,2R)-N-(1-cyanocyclopropyl)-2-(5-(4-(1,1-dioxidothiomorpho-lino)phenyl)-2-(isoxazol-3-yl)thiazol-4-yl)cyclohexane-carboxamide] | 1360 | 1 |
| N#CC1(NC(=O)[C@@H]2CCCC[C@H]2c2nc(N3CCOCC3)sc2-c2ccc(N3CCS(=O)(=O)CC3)cc2)CC1 [Example 40, (1R,2R)-N-(1-cyanocyclopropyl)-2-(5-(4-(1,1-dioxidothiomorpho-lino)phenyl)-2-morpholinothiazol-4-yl)cyclohexane-carboxamide] | ≥ 10000 | 1.8 |
| N#CC1(NC(=O)[C@@H]2CCCC[C@H]2c2nc(-c3ccc(Cl)cn3)sc2-c2ccc(N3CCS(=O)(=O)CC3)cc2)CC1 [Example 41, (1R,2R)-2-(2-(5-chloropyridin-2-yl)-5-(4-(1,1-dioxidothiomorpho-lino)phenyl)thiazol-4-yl)-N-(1-cyanocyclopropyl) cyclohexanecarbox-amide] | 945 | 1.2 |
| CC(C)(O)c1ccc(-c2nc([C@@H]3CCCC[C@H]3C(=O)NC3(C#N)CC3)c(-c3ccc(N4CCS(=O)(=O)CC4)cc3)s2)cc1 [Example 43, (1R,2R)-N-(1-cyanocyclopropyl)-2-(5-(4-(1,1-dioxidothiomorpho-lino)phenyl)-2-(4-(2-hydroxypropan-2-yl)phenyl)thiazol-4-yl)cyclohexane-carboxamide] | 1110 | 1.2 |
| N#CC1(NC(=O)[C@@H]2CCCC[C@H]2c2nc(-c3cncc(F)c3)sc2-c2ccc(N3CCS(=O)(=O)CC3)cc2)CC1 [Example 44, (1R,2R)-N-(1-cyanocyclopropyl)-2-(5-(4-(1,1-dioxidothiomorpho-lino)phenyl)-2-(5-fluoropyridin-3-yl)thiazol-4-yl)cyclohexane-carboxamide] | 790 | 0.7 |
